Laboratory results published in patent publication US20100221763A1, “Specific Acceptors for Transferases to Saccharides and Method for Obtaining and Using Same” (Health Research, Inc, priority 2005, published 2010).

Key:
[1] = target: T1, Rat recombinant α2,3(O)ST (Rattus norvegicus, UniProt Q11205); test: Sialyltransferase assay with cloned α2,3(O)ST; assay type: biochemical; conditions: for acceptor efficiency for cloned α2,3(O)ST (FIG. 6C): compared to Galβ1,3GalNAcβ1,3Galα-O-Me
T1 construct: purchased Calbiochem
T1 sequence (Q11205 1-350): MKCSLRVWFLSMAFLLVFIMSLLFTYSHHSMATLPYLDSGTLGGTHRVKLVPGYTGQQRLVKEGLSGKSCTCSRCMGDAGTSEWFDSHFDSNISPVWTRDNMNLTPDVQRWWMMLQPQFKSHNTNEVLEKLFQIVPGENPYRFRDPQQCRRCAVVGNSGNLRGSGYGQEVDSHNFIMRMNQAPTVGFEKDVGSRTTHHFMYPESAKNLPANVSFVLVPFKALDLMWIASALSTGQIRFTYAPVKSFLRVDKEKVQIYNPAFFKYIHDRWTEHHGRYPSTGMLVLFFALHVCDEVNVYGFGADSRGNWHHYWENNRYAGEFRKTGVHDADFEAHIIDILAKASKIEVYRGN

[2] = test system: α1,3-L-FT of colon tumor CC9338; test: α1,3-L-FT assay, colon tumor extract; assay type: biochemical, human; conditions: 1 mg protein of the tissue extract
Description: (§1) Colon tumor tissue (CC9338) and breast tumor tissue (BC9400) were obtained during surgical procedures at Roswell Park Cancer Institute and stored frozen within 1 h at −70° C. The tissues were homogenized at 4° C. with 4 volumes of 0.1M Tris Maleate […] 0.1% NaN3 using kinematica. After adjusting the concentration of Triton X-100 to 2%, these homogenates were mixed in the cold room for 1 h using Speci-Mix (Thermolyne) and then centrifuged at 20,000 g for 1 h at 4° C. The clear fat-free supernatant was stored frozen at −20° C. until use. Aliquots of 10 μL from this extract were used in assays run in duplicates. Glycosyltransferase activity in cell lysate was determined by mixing the lysates with acceptor and radiolabeled donor (monosaccharide) under the reaction conditions detailed below, followed by separation of un-reacted donor from the radioactive product using anionic or hydrophobic chromatography. In all cases, the radioactive content of isolated products was determined by using 3a70 scintillation cocktail (Research Products International, Mount Prospect, Ill.) and a Beckman LS6500 scintillation counter. Controls for each assay contained the reaction mixture with everything except the acceptor. All assays were run in duplicate. […]

[3] = test system: α1,3-L-FT of breast tumor BC9400; test: α1,3-L-FT assay, breast tumor extract; assay type: biochemical, human; conditions: 1 mg protein of the tissue extract
Description: as §1

[4] = test system: α1,4-L-FT of colon tumor CC9338; test: α1,4-L-FT assay, colon tumor extract; assay type: biochemical, human; conditions: 1 mg protein of the tissue extract
Description: as §1

[5] = test system: α1,4-L-FT of breast tumor BC9400; test: α1,4-L-FT assay, breast tumor extract; assay type: biochemical, human; conditions: 1 mg protein of the tissue extract
Description: as §1

CO[C@H]1O[C@H](CO)[C@H](O)[C@H](O[C@@H]2O[C@H](CO)[C@H](O)[C@H](O[C@@H]3O[C@H](C)[C@H](O)[C@H](O)[C@H]3O)[C@H]2NC(C)=O)[C@H]1O [D-Fucβ1,3GalNAcβ1,3Galα-O-Me]
acceptor efficiency for cloned α2,3(O)ST (FIG. 6C) ([1]; 0.15 mM): about 50% | acceptor efficiency for cloned α2,3(O)ST (FIG. 6C) ([1]; 0.75 mM): ~100% | Sialyltransferase activity (%) Cloned α2,3(O)ST ([1]; Table I, acceptor 7.5 mM, 100% = 40560 CPM (3-O-MeGalβ1,4GlcNAcβ1,6(Galβ1,3)GalNAcα-O-Bn), listed as D-Fucβ1,3GalNAcβ1,3-Gal-O-Me): 115.6%

CO[C@H]1[C@H](O[C@H]2[C@H](O)[C@@H](NC(C)=O)C(O)O[C@@H]2CO)O[C@H](CO)[C@H](O)[C@@H]1O (stereo partly shown) [2-O-MeGalβ1,4GlcNAc]
α1,3-L-FT activity: incorporation of radioactive sugar [2]: 540.9 CPM × 10^−3 | α1,3-L-FT activity: incorporation of radioactive sugar [3]: 30.5 CPM × 10^−3

CO[C@H]1[C@H](O[C@H]2[C@H](O)[C@@H](CO)OC(O)[C@@H]2NC(C)=O)O[C@H](CO)[C@H](O)[C@@H]1O (stereo partly shown) [2-O-MeGalβ1,3GlcNAc]
α1,4-L-FT activity: incorporation of radioactive sugar [4]: 727.5 CPM × 10^−3 | α1,4-L-FT activity: incorporation of radioactive sugar [5]: 4.6 CPM × 10^−3
